Measurements reported in patent publication US10029986B2, “Alkynyl pyridine-substituted amide compound and pesticide” (NISSAN CHEMICAL INDUSTRIES, LTD., priority 2014, dated 2018).

Assays:
[1] = system: Erysiphe polygoni (synonym: Erysiphe betae); assay: Test on the preventive effect against cucumber powdery mildew; type: in vivo; conditions: 216 h, 5 ml per pot sprayed, cucumber cotyledon stage, 9 days after inoculation; for pest or weed control at 500 µg/mL: test solution A 500 ppm
Protocol: Compounds of the present invention were dissolved in a solvent for emulsion (a mixture of Sorpol (registered trademark) 3005XL (manufactured by Toho Chemical Industry Co., Ltd.): N-methylpyrrolidone: Solvesso (registered trademark) 200 (manufactured by ExxonMobil Chemical) in a ratio of 1:5:2) to prepare 20 wt % emulsifiable concentrates. Then, distilled water was added to dilute the emulsifiable concentrates to the prescribed concentration (500 ppm), and the obtained solutions were used in the following the Test Examples 1 to 8. Cucumber (varieties: Sagami Hanjiro) was seeded in 90 cm^3 plastic pot, and at the cotyledon stage, 5 ml per pot of test solution A of the compounds of the present invention was sprayed. After drying in air, the pot was placed in an air-conditioned greenhouse (20° C.), and a suspension of conidium of Erysiphe polygoni (synonym: Erysiphe betae) was sprayed. After the pot were replaced at the same temperature for 9 days, the proportion of the formed lesion in the inoculated leaves were counted to calculate the control value in accordance with the following formula. The test was carried out in duplicate. Control value=[1−(lesion area ratio in treated plot/lesion are a ratio in non-treated plot)]×100

Botrytis cinerea [2] = assay: Test on the preventive effect against cucumber gray mold (spore inoculation); type: in vivo; conditions: 72 h, 5 ml per pot, cucumber cut leaves, conidium inoculation, 3 days at 20° C.; for pest or weed control at 500 µg/mL: test solution A 500 ppm
Protocol: Compounds of the present invention were dissolved in a solvent for emulsion (a mixture of Sorpol (registered trademark) 3005XL (manufactured by Toho Chemical Industry Co., Ltd.): N-methylpyrrolidone: Solvesso (registered trademark) 200 (manufactured by ExxonMobil Chemical) in a ratio of 1:5:2) to prepare 20 wt % emulsifiable concentrates. Then, distilled water was added to dilute the emulsifiable concentrates to the prescribed concentration (500 ppm), and the obtained solutions were used in the following the Test Examples 1 to 8. Cucumber (varieties: Sagami Hanjiro) was seeded in 90 cm^3 plastic pot, and at the cotyledon stage, 5 ml per pot of test solution A of the compounds of the present invention was applied. After drying in air, the treated leaves were cut and transferred in plastic containers. 30 μl of a mixture of a suspension of conidium of Botrytis cinerea and a dissolved PDA medium in a ratio of 1:1 was dropped on each treated leaf and inoculated. After the inoculation, the plastic containers were placed in 20° C. with humid conditions for 3 days, and the proportion of the formed lesion in the inoculated leaves were counted to calculate the control value in accordance with the same formula as in the Test Example 1. The test was carried out in duplicate.

Sclerotinia sclerotiorum = assay: Test on the preventive effect against cucumber stem rot; type: in vivo; conditions: 48 h, 5 ml per pot, agar block inoculation, 2 days at 20° C.; for pest or weed control at 500 µg/mL: test solution A 500 ppm
Protocol: (§1) Compounds of the present invention were dissolved in a solvent for emulsion (a mixture of Sorpol (registered trademark) 3005XL (manufactured by Toho Chemical Industry Co., Ltd.): N-methylpyrrolidone: Solvesso (registered trademark) 200 (manufactured by ExxonMobil Chemical) in a ratio of 1:5:2) to prepare 20 wt % emulsifiable concentrates. Then, distilled water was added to dilute the emulsifiable concentrates to the prescribed concentration (500 ppm), and the obtained solutions were used in the following the Test Examples 1 to 8. Cucumber (varieties: Sagami Hanjiro) was seeded in 90 cm^3 plastic pot, and at the cotyledon stage, 5 ml per pot of test solution A of the compounds of the present invention was applied. After drying in air, the pot was transferred in a plastic container, and an agar blocks (diameter: 5 mm) containing Sclerotinia sclerotiorum which was preliminarily cultivated in a PDA medium was inoculated to the seed leaves of the cucumber treated with the solution. After the inoculation, the plastic container was covered with a plastic sheet, and placed at 20° C. and humidified for 2 days, thus the proportion of the formed lesion in the inoculated leaves were measured to calculate the control value in accordance with the same formula as in the Test Example 1. The test was carried out in duplicate.

[3] = system: Phaeosphaeria nodorum (Synonym: Septoria nodorum); assay: Test on the preventive effect against wheat glume blotch; type: in vivo; conditions: Parastagonospora nodorum, 144 h, 5 ml per pot, wheat 1.3-leaf stage, 2 days inoculation chamber then 6 days at 20° C.; for pest or weed control at 500 µg/mL: test solution A 500 ppm
Protocol: Compounds of the present invention were dissolved in a solvent for emulsion (a mixture of Sorpol (registered trademark) 3005XL (manufactured by Toho Chemical Industry Co., Ltd.): N-methylpyrrolidone: Solvesso (registered trademark) 200 (manufactured by ExxonMobil Chemical) in a ratio of 1:5:2) to prepare 20 wt % emulsifiable concentrates. Then, distilled water was added to dilute the emulsifiable concentrates to the prescribed concentration (500 ppm), and the obtained solutions were used in the following the Test Examples 1 to 8. Wheat (varieties: Haruyutaka) was seeded in 90 cm^3 plastic pot, and at 1.3-leaf stage, 5 ml per pot of test solution A of the compounds of the present invention was applied. One day after treatment, a suspension of conidium of Phaeosphaeria nodorum (Synonym: Septoria nodorum) was sprayed to the wheat, and the pot was left in the inoculation chamber at 20° C. under humidity of 100% RH for 2 days. Then, the pot was placed in an air-conditioned greenhouse (20° C.) for 6 days. The proportion of the formed lesion in the inoculated leaves were measured to calculate the control value in accordance with the same formula as in the Test Example 1. The test was carried out in duplicate.

Botrytis cinerea [4] = assay: Test on the preventive effect against cucumber gray mold (mycelium inoculation); type: in vivo; conditions: 48 h, 5 ml per pot, cucumber cotyledon, agar block inoculation, 2 days at 20° C.; for pest or weed control at 500 µg/mL: test solution A 500 ppm
Protocol: as §1, with “applied. On the next day,” for “applied. After drying in air,”, “containing Botrytis cinerea” for “containing Sclerotinia sclerotiorum”, “inoculated on” for “inoculated to”, “the cotyledon” for “the seed leaves”, “sheet, then” for “sheet, and”, “2 days. Thus” for “2 days, thus”

[5] = system: Blumeria graminis f. sp. tritici; assay: Test on the preventive effect against wheat powdery mildew; type: in vivo; conditions: 168 h, 5 ml per pot, wheat 1.3-leaf stage, 7 days after inoculation; for pest or weed control at 500 µg/mL: test solution A 500 ppm
Protocol: Compounds of the present invention were dissolved in a solvent for emulsion (a mixture of Sorpol (registered trademark) 3005XL (manufactured by Toho Chemical Industry Co., Ltd.): N-methylpyrrolidone: Solvesso (registered trademark) 200 (manufactured by ExxonMobil Chemical) in a ratio of 1:5:2) to prepare 20 wt % emulsifiable concentrates. Then, distilled water was added to dilute the emulsifiable concentrates to the prescribed concentration (500 ppm), and the obtained solutions were used in the following the Test Examples 1 to 8. Wheat (varieties: Norin 61) was seeded in 90 cm^3 plastic pot, and at the 1.3-leaf stage, 5 ml per pot of test solution A of the compounds of the present invention were applied. One day after treatment, the pot was placed in an air-conditioned greenhouse (20° C.), and conidium of Blumeria graminis f. sp. tritici was inoculated to the wheat. 7 days after, the proportion of the formed lesion in the inoculated leaves were measured to calculate the control value in accordance with the same formula as in the Test Example 1. The test was carried out in duplicate.

[6] = system: Southern root-knot nematode (Meloidogyne incoqnita); assay: Insecticidal test against Southern root-knot nematode (eggs, 96 well plate); type: in vivo; conditions: 96 h, test solution B 100 ppm, 10 μl per well, 25° C. dark, 4 days after treatment, read-out: efficacy (unhatched eggs + inactive larvae relative to non-treated)
Protocol: (§2) Compounds of the present invention were dissolved in dimethyl sulfoxide to prepare 1 wt % solutions. Then, distilled water was added to dilute the solutions to the prescribed concentration (100 ppm), and the obtained solutions were used in the following the Test Examples 9 to 12. 60 μl of a potato dextrose 1% agar medium was added to each well of a 96 well plate, and 30 μl of sterilized water containing eggs of Southern root-knot nematode (Meloidogyne incoqnita) (10 eggs/3 μl) was added to each well. Further, 10 μl per well of test solution B of the compounds of the present invention was added, and the plate was left at rest at 25° C. under dark conditions.

[7] = system: Barber pole worm (Haemonchus contortus); assay: Insecticidal test against Barber pole worm (eggs, 96 well plate); type: in vivo; conditions: 96 h, test solution B 100 ppm, 10 μl per well, 25° C. dark, 4 days after treatment, read-out: efficacy (unhatched eggs and inactive larvae relative to non-treated)
Protocol: as §2, with “Barber pole worm (Haemonchus contortus)” for “Southern root-knot nematode (Meloidogyne incoqnita)”

Row | melting point [°C] | Structure (SMILES) | pest or weed control at 500 µg/mL [1] [%] | pest or weed control at 500 µg/mL (Botrytis cinerea [2]) [%] | pest or weed control at 500 µg/mL (Sclerotinia sclerotiorum) [%] | pest or weed control at 500 µg/mL [3] [%] | other results
1 |  | CC(NC(=O)c1cccnc1Cl)C(SCC(F)(F)F)c1ncc(C#CC2CC2)cc1Cl (stereo not shown) [3-032] | ≥ 70 | ≥ 70 | ≥ 70 | ≥ 70 | 
2 |  | CCOC(c1ncc(C#CC2CC2)cc1Cl)C(C)NC(=O)c1cccnc1C(F)F (stereo not shown) [3-022] |  |  |  |  | pest or weed control at 100 ppm ([1]; 100 ppm solution (symbol *)): ≥ 70%; pest or weed control at 100 ppm (Botrytis cinerea [2]; 100 ppm solution (symbol *)): ≥ 70%; pest or weed control at 100 ppm (Botrytis cinerea [4]; 100 ppm solution (symbol *)): ≥ 70%; pest or weed control at 100 ppm (Sclerotinia sclerotiorum; 100 ppm solution (symbol *)): ≥ 70%; pest or weed control at 100 ppm ([5]; 100 ppm solution (symbol *)): ≥ 70%; pest or weed control at 100 ppm ([3]; 100 ppm solution (symbol *)): ≥ 70%
3 |  | CC(NC(=O)c1ccccc1C(F)(F)F)C(SCC(F)(F)F)c1ncc(C#CC2CC2)cc1Cl (stereo not shown) [1-032] | ≥ 70 |  |  | ≥ 70 | 
4 |  | O=C(NCC(CC(F)(F)F)c1ncc(C#CC2CC2)cc1Cl)c1ccccc1C(F)(F)F (stereo not shown) [1-010] | ≥ 70 | ≥ 70 | ≥ 70 | ≥ 70 | pest or weed control at 100 µg/mL [6]: ≥ 50%; pest or weed control at 100 µg/mL [7]: ≥ 50%
5 |  | CCOC(c1ncc(C#CC2CC2)cc1Cl)C(C)NC(=O)c1ccccc1C(F)(F)F (stereo not shown) [1-026] | ≥ 70 | ≥ 70 | ≥ 70 | ≥ 70 | pest or weed control at 500 µg/mL (Botrytis cinerea [4]): ≥ 70%; pest or weed control at 500 µg/mL [5]: ≥ 70%
6 | 65 to 66 | CC(NC(=O)c1cccnc1C(F)(F)F)C(SCC(F)(F)F)c1ncc(C#CC2CC2)cc1Cl (stereo not shown) [3-034a] |  |  |  |  | 
7 | 43 to 46 | Cn1cc(C(=O)NCC(C#N)c2ncc(C#CC3CC3)cc2Cl)c(C(F)F)n1 (stereo not shown) [8-021, N-[2-[3-chchloro-5-(cyclopropylethynyl)pyridin-2-yl]-2-cyanoethyl]-3-difluoromethyl-1-methyl-1H-pyrazole-4-carboxamide] |  |  |  |  | 
8 | 157 to 158 | O=C(NCC(F)(F)c1ncc(C#CC2CC2)cc1Cl)c1ncccc1C(F)(F)F [2-001] |  |  |  |  | 
9 | 113 to 115 | CC(F)(CNC(=O)c1cccnc1C(F)F)c1ncc(C#CC2CC2)cc1Cl (stereo not shown) [3-038, N-[2-[3-chloro-5-(cyclopropylethynyl)pyridin-2-yl]-2-fluoropropyl]-2-(difluoromethyl)nicotinamide] |  |  |  |  | 
10 |  | CC(NC(=O)c1cccnc1C(F)(F)F)C(SCC(F)(F)F)c1ncc(C#CC2CC2)cc1Cl (stereo not shown) [3-034] | ≥ 70 | ≥ 70 | ≥ 70 | ≥ 70 | pest or weed control at 500 µg/mL (Botrytis cinerea [4]): ≥ 70%
11 |  | CC(NC(=O)c1ccccc1C(F)(F)F)C(OCC(F)(F)F)c1ncc(C#CC2CC2)cc1Cl (stereo not shown) [1-027] | ≥ 70 | ≥ 70 | ≥ 70 | ≥ 70 | pest or weed control at 500 µg/mL (Botrytis cinerea [4]): ≥ 70%; pest or weed control at 500 µg/mL [5]: ≥ 70%
12 | 110 to 111 | Cn1cc(C(=O)NCC(F)(F)c2ncc(C#CCF)cc2Cl)c(C(F)F)n1 [8-005, N-[2-[3-chloro-5-(3-fluoro-1-propynyl)pyridin-2-yl]-2,2-difluoroethyl]-3-difluoromethyl-1-methyl-1H-pyrazole-4-carboxamide] |  |  |  |  | 
